Entries after “also recorded” stand apart in the source; their conditions may differ.
Columns and labels:
[1] = Tolerability and pharmacokinetics in rats, T748 inhaled for 14 consecutive days; format: in vivo, rat; settings: T748, 0.6-18 μg/kg
Method: Body weights were recorded daily and organ weights (lungs, heart, liver) were measured 24 hr. after the last drug dose.

EP2 prostanoid receptor = target: T1, EP2 prostanoid receptor (Homo sapiens, UniProt P43116); test: GloSensor cAMP assay in CHO-K1 cells co-transfected with the EP2 receptor; format: cell-based; settings: for Max cAMP level (Fold): CHO-K1 cells
T1 construct: host or cells: CHO-K1
From the text: cAMP is a second messenger involved in signal transduction of G-protein coupled receptors (GPCRs) acting through Gα-s and Gα-i proteins. Because the treprostinil receptor is a GPCR, the assay provides an indication of whether the respective prostacyclin compound (or metabolite thereof) binds its receptor and activates the GPCR cell signaling cascade. The GloSensorTM assay harnesses a genetically modified form of firefly luciferase into which a cAMP-binding protein moiety has been inserted. Upon binding of cAMP, a conformational change is induced leading to increased light output. The EP2 prostanoid receptor was co-transfected with the GloSensorTM plasmid (Promega) into CHO-K1 cells as follows. CHO-K1 cells were harvested when the monoloayer was at 50-90% confluence. First, cells were washed with 5 mL PBS. […] The media was aspirated, and the cell pellet was resuspended in 10 mL of growth media. Cell number was determined using a hemacytometer. Each well of a culture treated 96 well flat bottom plate (Costar, Cat #: 3917) was seeded with 1×10^4 cells per 100 μL antibiotic-free growth media. […] For small scale transfections of up to 20 wells, the pGLoSensor-22F cAMP plasmid (Promega, Cat #: E2301) (2 μg): (EP2) (10 ng) (Origene, Cat #: SC126558):pGEM-3Zf(+) (10 ng) (Promega, Cat #: P2271) ratio was diluted to a final concentration of 12.6 ng/μL (total plasmid) in Opti-MEM I reduced-serum medium (Life Technologies, Cat #: 1985062). Next, 6 μL of FuGENE HD transfection reagent (Promega, Cat #: E2311) was added to 160 μL of diluted plasmid and mixed carefully by gentle pipetting. The complex was incubated at room temperature for 0 to 10 minutes, and then 8 μL of the complex was added per well of a 96 well white assay plate (Costar, Cat #: 3917) and gently mixed without disturbing the cell monolayer. […] Following incubation, cells were treated and analyzed. For larger scale transfections, the aforementioned steps were scaled up accordingly, and cells were frozen following the last incubation. In order to prepare frozen transfected CHO-K1 cells, the media was aspirated from culture flasks and cells were rinsed with 5 mL PBS. […] Cell number was determined using a hemacytometer. The media was aspirated, and the cell pellet was resuspended in freezing media (Millipore, cat #: S-002-5F) at 2.5×10^6 cells/vial. Transfected cells were incubated overnight at -80° C. before transfer to liquid nitrogen for long term storage. […] In preparation for cAMP measurement, the cells were equilibrated with the GloSensor cAMP reagent prior to treatment. For equilibration, the medium was carefully removed from the individual well. Next, 100 μL of equilibration medium ([…] of Glosensor Reagent stock solution (Promega, Cat #: E291), 10% FBS (Hyclone, Cat #: SH30071.03) and 88% CO2 independent medium (Life Technologies, Cat #: 18045088)) was added per well of the 96-well plate, and added to the side of each well. The plate was then incubated for 2 hours at room temperature. A first pre-read measurement was taken using a microplate reader (MicroLumat Plus). Plates were incubated for an additional 10 minutes at room temperature, followed by a second pre-read measurement. […] Following treatment, each plate was read every 5 minutes for the duration of the assay using a microplate reader (MicroLumat Plus). In order to determine the fold change in cAMP relative to the control, the transfection efficiency was first determined by dividing the second pre-read measurement by the average of the corresponding pre-read measurements. Next, the normalized relative light units (RLUs) of the samples were determined by dividing the plate read measurement by the transfection efficiency. The fold change in cAMP relative to the control was then determined by dividing the normalized RLU of the samples by the normalized RLU of the control. The cAMP assay was validated using free treprostinil. […] Luminescence was then measured at room temperature. […]

[2] = Treprostinil pharmacokinetics in anaesthetised, ventilated rats after nebulized dosing; format: in vivo, rat; settings: nebulized TRE solution
Method: Male Sprague Dawley rats were anaesthetised and prepared with endotracheal tube for ventilation. The right femoral vein was cannulated to facilitate blood collections. Terminal lung samples were taken for analysis only 6 hours after dosing. […] Systemic blood pressure (mSAP), heart rate (HR), and arterial oxygen saturation (SaO2). Physiologic parameters were measured during normoxia (fraction of inspired oxygen [FrO2]=0.21, SaO2≈90%) and for 2 to 3 hours during hypoxia (FrO2=0.10, SaO2≈50%).

[3] = dog, in vivo
Method: Twelve beagle dogs of either sex were randomly assigned to different inhaled doses of treprostinil in PBS or the compound of Formula (A) wherein
Formulations were nebulized with an Aeroneb nebulizer (MMAD: 2.5-4 μm) delivered into a 500 ml expansion chamber. Formulations were nebulized for 2 min at ventilator settings of 90 ml/breath, 15 breaths/min (delivered volume=2.7 L) and collected on a filter. Drug amount (m) on the filter was measured by HPLC to calculate the concentration of drug delivered through the ventilator circuit (μg/L).
Dosimetry was performed in propofol-anesthetized dogs in which nebulized drugs were introduced into a mixing chamber interposed on the inspiratory limb of a canine respirator. Technical trials were performed before each experiment to measure the concentration of drug (μg/L) delivered for each breath. The inhaled drug dose (μ/kg) was calculated using the formula: Inhaled Drug Dose (μg/kg)=Drug Conc. (μg/L)×Minute Ventilation (L/min.)×Time (min.)/Body Weight (kg). […] Clinical signs were monitored over this 72 hr. period.
Dosimetry was performed in propofol-anesthetized, artificially ventilated dogs in which nebulized drugs were introduced into a mixing chamber interposed on the inspiratory limb of the respirator. […] Clinical signs (cough, rapid shallow breathing, emesis and pale gums) were also monitored.

[4] = test system: Cough Reflex in Guinea Pigs; test: Cough reflex in guinea pigs (whole body plethysmograph); format: in vivo, guinea pig
Method: T623 has the following components:
Aerosols were generated with an Ultra-Neb Pro nebulizer (nebulizer output 0.36 mL/min.) that was mixed with inspired air delivered at a rate of 2 L/min. The PBS or drugs were delivered for 10 min. and the number of coughs recorded during and for 20 min. after the delivery. Coughs were detected by visual observations, plethysmograph recordings and cough sounds.

CHO-K1 cells = test: CHO-K1 cell proliferation assay (Presto Blue); settings: unformulated alkyl esters, 48 hour incubation
Method: CHO-K1 cells were harvested when the cell monolayer was 50-90% confluent (use passage 4-11). Media was aspirated out of the flask, and cells were rinsed with 2 mL of F12 media. Next, 1 mL of pre-warmed (37° C.) 0.25% trypsin-EDTA (Life Technologies, Cat #: 25300054) was added, and cells were dislodged from the flask by tapping it on the side. Complete growth media (F12 (Life Technologies, Cat #: 31765092)+10% FBS (Hyclone, Cat #: SH30071.03)+1× Pen-Strep (Life Technologies, cat #15140-122) was then added at a volume of 10 mL. Cells were centrifuged at 250×g for 5 minutes at room temperature, and the media was aspirated. The cell pellet was resuspended in 10 mL complete growth media. Cell number was determined using a hemacytometer. Cells were then seeded at 2000 cells per well of a 96-well plate in 100 μL of complete growth media. The plate was incubated overnight at 37° C. and 5% CO2 in a water-jacketed incubator.
The next day, 80 μL of fresh complete media was added to each well, and CHO-K1 cells were challenged with treprostinil compound and composition treatments. The working solutions were prepared at 10× concentration, and following 2 fold serial dilutions, 20 μL aliquots were added per well to arrive at a final 1× concentration. Following a 48 hour incubation at 37° C. and 5% CO2 in a water-jacketed incubator, the inhibitory effect on cell proliferation was determined. Plates were analyzed using 20 μL of Presto Blue reagent (Life Technologies, cat #: A13262) per well. The reagent was mixed, and plates were incubated for 1 hour at 37° C. and 5% CO2 in a water-jacketed incubator. Plates were read using either a CytoFluor Series 4000 (PerSeptive BioSystems) or Synergy Neo microplate reader (BioTek) with emission λ: 590 nm and excitation λ: 560 nm.
at concentrations ranging from 0.55 μM to 125 μM. Following a 48 hour incubation period, the inhibitory effect of the treprostinil derivative compositions on cell proliferation was determined.
C2, C3, C4, C5, C6, C8, C10 or Cu straight chain alkyl, at dosages ranging from 0.098 μM to 25 μM. Following a 48 hour incubation period, the inhibitory effect on cell proliferation was determined.
Following a 72 hour incubation period, the inhibitory effect on cell proliferation was determined. Following a 48 hour incubation period, the inhibitory effect on cell proliferation was determined.
Similarly, CHO-K1 cells were challenged with the treprostinil compositions T612 (R2=C2), T613 (R2=C8) at concentrations ranging from 1.41 μM to 180 μM.

[5] = Treprostinil alkyl ester conversion to treprostinil in dog lung tissue homogenate; format: in vitro ADME; settings: 37° C., 200 nM, 4 hours, 10 mg/mL of protein
Method: (§1) Treprostinil alkyl ester conversion to treprostinil was also measured in the presence of rat, dog and monkey lung tissue homogenate at 37° C. Here, data were calculated based on fit of exponential increase to the maximum (experiments performed in duplicate). The results of this study are provided below in Table 2A and FIG. 37. […] Both FIG. 37 experiments (left and right graphs) were performed in duplicate and the lines represent nonlinear exponential regression assuming 1 phase decay.

[6] = Treprostinil alkyl ester conversion to treprostinil in monkey lung tissue homogenate; format: in vitro ADME; settings: 37° C., 200 nM, 4 hours, 10 mg/mL of protein
Method: as §1

[7] = test system: Rat alveolar NR8383 cells; test: NR8383 cell proliferation assay (Presto Blue); format: cell-based; settings: unformulated alkyl esters, 72 hour incubation
Method: Rat alveolar NR8383 cells were harvested when the monolayer was 50-90% confluent (use passage 5-11). Because the NR8383 cells include both adherent and non-adherent cells, media was transferred to a 50 mL Falcon tube. To obtain the cells remaining in the flask, 2 mL of plain media was added, and the remaining cells were scraped out of the 75 cm^2 flask with a cell scraper and added to the 50 mL tube. […] SH30071.03)+1×Pen-Strep (Life Technologies, cat #: 15410-122)). Cell number was determined using a hemacytometer. […] Measurements and calculations were made as described above for the CHO-K1 cells.

[8] = Treprostinil alkyl ester conversion to treprostinil in rat lung tissue homogenate; format: in vitro ADME; settings: 37° C., 200 nM, 4 hours, 10 mg/mL of protein
Method: as §1

[9] = nebulized concentration of 30 μg/mL

T1 sequence (P43116 whole entry): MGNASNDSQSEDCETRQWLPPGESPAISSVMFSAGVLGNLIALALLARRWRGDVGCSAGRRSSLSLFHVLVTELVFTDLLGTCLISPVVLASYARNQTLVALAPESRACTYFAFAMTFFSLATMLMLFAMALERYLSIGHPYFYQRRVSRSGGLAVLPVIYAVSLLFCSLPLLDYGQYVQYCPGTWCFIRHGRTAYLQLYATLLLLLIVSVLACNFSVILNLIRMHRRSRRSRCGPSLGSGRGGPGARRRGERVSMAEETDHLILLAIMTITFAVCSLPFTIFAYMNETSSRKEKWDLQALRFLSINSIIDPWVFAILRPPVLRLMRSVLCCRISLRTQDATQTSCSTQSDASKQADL

## CCCCCCCCCCCCCCCCOC(=O)COc1cccc2c1C[C@H]1C[C@@H](O)[C@H](CC[C@@H](O)CCCCC)[C@H]1C2 [Compound C16-TR, hexadecyl-treprostinil]
[1]
  tolerability, body weights and organ weights: no tolerability issues or significant changes (relative to PBS) in body weights and organ weights; also recorded: well tolerated with no evidence of body weight and organ weight change
EP2 prostanoid receptor; kinetic profile, 10 μM and 5 μM, FIG. 21
  ranking of activity of the treprostinil compounds: C12-TR>C14-TR>5-nonanyl-TR>C16-TR

## CCCCC[C@H](O)CC[C@@H]1[C@H]2Cc3cccc(OCC(=O)O)c3C[C@H]2C[C@H]1O [Treprostinil, (1R,2R,3aS,9aS)-[[2,3,3a,4,9,9α-hexahydro-2-hydroxy-1-[(3S)-3-hydroxyoctyl]-1H-benz[f]inden-5-yl]oxy]acetic acid]
[2]
  time beyond which measurable levels of TRE were not seen in the blood plasma: ≤ 4 h
[3]
  period over which plasma levels of treprostinil were sustained: disappeared within a few hours
EP2 prostanoid receptor; 10 μM, composition, FIG. 3A
  cAMP levels sustained for: not exhibited
EP2 prostanoid receptor; Effect of nebulization (FIG. 6), head prints (5 μM)
  Max cAMP level (Fold): ~15 Fold
EP2 prostanoid receptor; cAMP response in CHO-K1 cells, 4.5 hr incubation
  EC50: 0.2 µM
EP2 prostanoid receptor; compositions shown in FIG. 3, 8 hours time course
  Max cAMP level (Fold): ~16 Fold
EP2 prostanoid receptor; compositions shown in FIG. 4, 5 μM, 8 hours time course
  Max cAMP level (Fold): ~14 Fold
[4]; 1-300 μg/ml tested
  exposure concentration consistently evoking cough: ≥ 30 µg/mL
[4]; [9]
  cough bouts: 1-4
  cough response: consistent cough in 7 of 7 guinea pigs
[4]; nebulized concentration of 30 μg/mL, 10 min delivery + 20 min
  total number of coughs: 36±9 coughs

## CCCCCCCCOC(=O)COc1cccc2c1C[C@H]1C[C@@H](O)[C@H](CC[C@@H](O)CCCCC)[C@H]1C2 [Compound C8-TR, treprostinil octyl ester]
CHO-K1 cells
  Effect on cell proliferation, CHO-K1 Cells (0.195 μM-25 μM): showed inhibition of cell proliferation
[5]
  Rate of treprostinil alkyl ester conversion: 49.8 nmOL/h * g of protein
[6]
  Rate of treprostinil alkyl ester conversion: 17.3 nmOL/h * g of protein
[7]
  Effect on cell proliferation, NR8383 Cells (0.195 μM-25 μM): showed some inhibition of cell proliferation
[8]
  Rate of treprostinil alkyl ester conversion: 32.5 nmOL/h * g of protein

## CCCCCCCCCCCCOC(=O)COc1cccc2c1C[C@H]1C[C@@H](O)[C@H](CC[C@@H](O)CCCCC)[C@H]1C2 [Compound C12-TR, dodecyl-treprostinil]
CHO-K1 cells
  Effect on cell proliferation, CHO-K1 Cells (0.195 μM-25 μM): No detectable cell inhibition
[5]
  Rate of treprostinil alkyl ester conversion: 2.2 nmOL/h * g of protein
[6]
  Rate of treprostinil alkyl ester conversion: 0.6 nmOL/h * g of protein
[7]
  Effect on cell proliferation, NR8383 Cells (0.195 μM-25 μM): No detectable cell inhibition
[8]
  Rate of treprostinil alkyl ester conversion: 1.1 nmOL/h * g of protein
